Drawing on patent publication US9822126B1, “Substituted 1,2,3-triazol-1-yl-methyl-2,3-dihydro-2-methyl-6-nitroimidazo[2,1-b]oxazoles as anti-mycobacterial agents and a process for the preparation thereof” (priority 2014, dated 2017), this text covers MIC and Cytotoxicity for 22 molecules.

Structures are written as SMILES. Converted amounts (≈) assume the structure as drawn. Where two headings read alike, the source gives them in different places.

What all share (format): cell-based
Data set [1] concerns M. tuberculosis H37Rv (ATCC 27294). Put plainly: MIC by broth dilution against M. tuberculosis H37Rv (replicating). The note with it: Mycobacterium tuberculosis. (Dilution methods test growth across graded concentrations, often in twofold steps.)
Data set [2] relates to non-replicating stages of M. tuberculosis. Description: MIC against non-replicating M. tuberculosis. To be noted: Mycobacterium tuberculosis, read-out: MIC Non-replicating strain.
The test system of data set [3] is macrophage J774 cells line. Put plainly: Cytotoxicity assay (MTT) in macrophage J774 cells. The note with it: macrophage J774, 24 hrs incubation, tested at 40 μg/ml. The procedure: The study was carried out using macrophage J774 cells line (ATCC-USA). Cells were grown in Rosewell Park Memorial Institute Medium (RPMI) containing 10% fetal calf serum (FCS) and supplemented with 75 mg/liter penicillin, 100 mg/liter streptomycin, 110 mg/liter Sodium pyruvate, 2.38 gm/liter HEPES, 0.05 mM 2 β-mercaptoethanol, and 2 gm/liter NaHCO3, in a humidified atmosphere in 5% CO2 at 37° C., and were sub-cultured at 1:4 ratio once a week.
Cells were plated at a density of 3×10^4 cells/cm^2 and maintained in culture medium for 12 hours. Cells were seeded onto 96-well flat bottom plates and FCS was reduced to 5% for the experiment. Stock solutions of compounds 9 to 37 were prepared fresh to avoid oxidation. Cells were incubated with the compounds (40 μg/ml) for 24 hrs.
After the completion of incubation, the medium was removed and cell viability was evaluated by assaying for the ability of functional mitochondria to catalyze the reduction of 3-(4,5-dimethylthiazol-2-yl)-2,5-diphenyltetrazolium bromide (MTT) to form formazan salt by mitochondrial dehydrogenases, and determined by Elisa reader at 450 nm (Multiskan Spectrum; Thermo Electron Corporation, USA). Percentage cytotoxicity was calculated with respect to the untreated cells.

Where [4] appears, read: 504 h, broth dilution, 37° C. for 3-weeks, read visually, replicating stage, read-out: MIC M. tb H37Rv.

With `Cc1ccc(OCc2cn(C[C@@]3(C)Cn4cc([N+](=O)[O-])nc4O3)nn2)cc1` [I12, (R)-2-Methyl-6-nitro-2-((4-((p-tolyloxy)methyl)-1H-1,2,3-triazol-1-yl)methyl)-2,3-dihydroimidazo[2,1-b]oxazole], the MIC (in general, the smallest concentration in the dilution series that meets the test's criterion for growth inhibition) in data set [1] (setting [4]) was determined as 1 µg/mL (≈ 2.7 µM); in data set [2] it was 2 µg/mL (≈ 5.4 µM). This molecule also had a Cytotoxicity in data set [3] of more than 40 µg/mL.

Turning to `C[C@]1(Cn2cc(COc3cccc(Cl)c3)nn2)Cn2cc([N+](=O)[O-])nc2O1` [I10, (R)-2-((4-((3-Chlorophenoxy)methyl)-1H-1,2,3-triazol-1-yl)methyl)-2-methyl-6-nitro-2,3-dihydroimidazo[2,1-b]oxazole], the minimal inhibitory concentration (MIC) in data set [1] (setting [4]) is 0.5 µg/mL (≈ 1.28 µM); in data set [1] (read-out: MIC value), less than 1 µg/mL; in data set [2], 1 µg/mL (≈ 2.56 µM). In data set [3], the Cytotoxicity was more than 40 µg/mL.

As for `Cc1ccccc1OCc1cn(C[C@@]2(C)Cn3cc([N+](=O)[O-])nc3O2)nn1` [I14, (R)-2-Methyl-6-nitro-2-((4-((o-tolyloxy)methyl)-1H-1,2,3-triazol-1-yl)methyl)-2,3-dihydroimidazo[2,1-b]oxazole], the MIC in data set [1] (setting [4]) is 0.5 µg/mL (≈ 1.35 µM); in data set [1] (read-out: MIC value), less than 1 µg/mL; in data set [2], 2 µg/mL (≈ 5.4 µM). The molecule further yielded a Cytotoxicity in data set [3] of more than 40 µg/mL.

As to `C[C@]1(Cn2cc(-c3ccc(Oc4ccccc4)cc3)nn2)Cn2cc([N+](=O)[O-])nc2O1` [I6, (R)-2-Methyl-6-nitro-2-((4-(4-phenoxyphenyl)-1H-1,2,3-triazol-1-yl)methyl)-2,3-dihydroimidazo[2,1-b]oxazole], the minimum inhibitory concentration (MIC) in data set [1] (setting [4]) and in data set [2] was 2 µg/mL (≈ 4.78 µM) each time. In addition, the Cytotoxicity in data set [3] was more than 40 µg/mL.

`C[C@]1(Cn2cc(CN3CCOCC3)nn2)Cn2cc([N+](=O)[O-])nc2O1` [I22, (R)-2-Methyl-2-((4-(morpholinomethyl)-1H-1,2,3-triazol-1-yl)methyl)-6-nitro-2,3-dihydroimidazo[2,1-b]oxazole]: the results for the MIC in data set [1] (setting [4]) and in data set [2] were 2 µg/mL (≈ 5.72 µM) and 1 µg/mL (≈ 2.86 µM), respectively. Besides, in data set [3], the Cytotoxicity is more than 40 µg/mL.

As to `Cc1cc(-c2cn(C[C@@]3(C)Cn4cc([N+](=O)[O-])nc4O3)nn2)ccc1F` [I4, (R)-2-((4-(4-Fluoro-3-methylphenyl)-1H-1,2,3-triazol-1-yl)methyl)-2-methyl-6-nitro-2,3-dihydroimidazo[2,1-b]oxazole], the minimal inhibitory concentration (MIC) in data set [1] (setting [4]) was determined as 2 µg/mL (≈ 5.58 µM); in data set [2], 4 µg/mL (≈ 11.2 µM). In data set [3], the Cytotoxicity was more than 40 µg/mL.

As to `C[C@]1(Cn2cc(-c3ccc(F)cc3)nn2)Cn2cc([N+](=O)[O-])nc2O1` [I3, (R)-2-((4-(4-Fluorophenyl)-1H-1,2,3-triazol-1-yl)methyl)-2-methyl-6nitro-2,3-dihydro imidazo[2,1-b]oxazole], the minimum inhibitory concentration (MIC) in data set [1] (setting [4]) is 1 µg/mL (≈ 2.9 µM); in data set [2], 2 µg/mL (≈ 5.81 µM). In addition, in data set [3], the Cytotoxicity was more than 40 µg/mL.

As for `CCc1ccc(OCc2cn(C[C@@]3(C)Cn4cc([N+](=O)[O-])nc4O3)nn2)cc1` [I15, (R)-2-((4-((4-Ethylphenoxy)methyl)-1H-1,2,3-triazol-1-yl)methyl)-2-methyl-6-nitro-2,3-dihydroimidazo[2,1-b]oxazole], the minimum inhibitory concentration (MIC) in data set [1] (setting [4]) and in data set [2] was 2 µg/mL (≈ 5.2 µM) each time. In data set [3], this molecule returned a Cytotoxicity of more than 40 µg/mL.

Take `Cc1ccc(OCCc2cn(C[C@@]3(C)Cn4cc([N+](=O)[O-])nc4O3)nn2)cc1` [I21, (R)-2-Methyl-6-nitro-2-((4-(2-(p-tolyloxy)ethyl)-1H-1,2,3-triazol-1-yl)methyl)-2,3-dihydroimidazo[2,1-b]oxazole]: the figures for the MIC in data set [1] (setting [4]), in data set [1] (read-out: MIC value) and in data set [2] were 0.25 µg/mL (≈ 0.65 µM), less than 1 µg/mL and 0.25 µg/mL (≈ 0.65 µM), respectively. The molecule also registered a Cytotoxicity in data set [3] of more than 40 µg/mL.

As for `Cc1ccc(SCc2cn(C[C@@]3(C)Cn4cc([N+](=O)[O-])nc4O3)nn2)cc1` [I20, (R)-2-Methyl-6-nitro-2-((4-((p-tolylthio)methyl)-1H-1,2,3-triazol-1-yl)methyl)-2,3-dihydroimidazo[2,1-b]oxazole], the MIC came to 2 µg/mL (≈ 5.18 µM) in data set [1] (setting [4]) and 1 µg/mL (≈ 2.59 µM) in data set [2]. Besides, in data set [3], the Cytotoxicity is more than 40 µg/mL.

As to `C[C@]1(Cn2cc(COc3ccccc3F)nn2)Cn2cc([N+](=O)[O-])nc2O1` [I17, (R)-2-((4-((2-Fluorophenoxy)methyl)-1H-1,2,3-triazol-1-yl)methyl)-2-methyl-6-nitro-2,3-dihydroimidazo[2,1-b]oxazole], the MIC was 0.25 µg/mL (≈ 0.668 µM) in data set [1] (setting [4]), less than 1 µg/mL in data set [1] (read-out: MIC value) and 0.5 µg/mL (≈ 1.34 µM) in data set [2]. This molecule also showed a Cytotoxicity in data set [3] of more than 40 µg/mL.

Regarding `CCCCCc1cn(C[C@@]2(C)Cn3cc([N+](=O)[O-])nc3O2)nn1` [I7, (R)-2-[(4-Pentyl-1H-1,2,3-triazol-1-yl)methyl]-2,3-dihydro-2-methyl-6-nitroimidazo[2,1-b]oxazole], the minimal inhibitory concentration (MIC) in data set [1] (setting [4]) was 2 µg/mL (≈ 6.24 µM); in data set [2], 4 µg/mL (≈ 12.5 µM). For the same molecule, the Cytotoxicity in data set [3] is more than 40 µg/mL.

`Cc1cccc(OCc2cn(C[C@@]3(C)Cn4cc([N+](=O)[O-])nc4O3)nn2)c1` [I13, (R)-2-Methyl-6-nitro-2-((4-((m-tolyloxy)methyl)-1H-1,2,3-triazol-1-yl)methyl)-2,3-dihydroimidazo[2,1-b]oxazole]: the minimal inhibitory concentration (MIC) is 0.5 µg/mL (≈ 1.35 µM) in data set [1] (setting [4]), less than 1 µg/mL in data set [1] (read-out: MIC value) and 0.5 µg/mL (≈ 1.35 µM) in data set [2]. In data set [3], this molecule returned a Cytotoxicity of more than 40 µg/mL.

`C[C@]1(Cn2cc(-c3ccc(OC(F)(F)F)cc3)nn2)Cn2cc([N+](=O)[O-])nc2O1` [I1, (R)-2-Methyl-6-nitro-2-((4-(4-(trifluoromethoxy)phenyl)-1H-1,2,3-triazol-1-yl)methyl)-2,3-dihydroimidazo[2,1-b]oxazole]: the MIC stood at 2 µg/mL (≈ 4.87 µM) in data set [1] (setting [4]) and 4 µg/mL (≈ 9.75 µM) in data set [2]. Besides, in data set [3], the Cytotoxicity was more than 40 µg/mL.

As to `C[C@]1(Cn2cc(COc3ccc(OC(F)(F)F)cc3)nn2)Cn2cc([N+](=O)[O-])nc2O1` [I8, (R)-2-Methyl-6-nitro-2-((4-((4-(trifluoromethoxy)phenoxy)methyl)-1H-1,2,3-triazol-1-yl)methyl)-2,3-dihydroimidazo[2,1-b]oxazole], the figures for the MIC in data set [1] (setting [4]) and in data set [2] were 2 µg/mL (≈ 4.54 µM) and 4 µg/mL (≈ 9.08 µM), respectively. Moreover, the Cytotoxicity in data set [3] was more than 40 µg/mL.

Regarding `C[C@]1(Cn2cc(COc3ccc(C(F)(F)F)cc3)nn2)Cn2cc([N+](=O)[O-])nc2O1` [I9, (R)-2-Methyl-6-nitro-2-((4-((4-(trifluoromethyl)phenoxy)methyl)-1H-1,2,3-triazol-1-yl)methyl)-2,3-dihydroimidazo[2,1-b]oxazole], the MIC in data set [1] (setting [4]) came out at 1 µg/mL (≈ 2.36 µM); in data set [2], 2 µg/mL (≈ 4.71 µM). For the same molecule, the Cytotoxicity in data set [3] was more than 40 µg/mL.

Turning to `C[C@]1(Cn2cc(COc3cccc(F)c3)nn2)Cn2cc([N+](=O)[O-])nc2O1` [I16, (R)-2-((4-((3-Fluorophenoxy)methyl)-1H-1,2,3-triazol-1-yl)methyl)-2-methyl-6-nitro-2,3-dihydroimidazo[2,1-b]oxazole], the results for the MIC in data set [1] (setting [4]) and in data set [2] were 1 µg/mL (≈ 2.67 µM) and 2 µg/mL (≈ 5.34 µM), respectively. The same molecule showed a Cytotoxicity in data set [3] of more than 40 µg/mL.

As to `CC(C)c1ccc(OCc2cn(C[C@@]3(C)Cn4cc([N+](=O)[O-])nc4O3)nn2)cc1` [I18, (R)-2-((4-((4-Isopropylphenoxy)methyl)-1H-1,2,3-triazol-1-yl)methyl)-2-methyl-6-nitro-2,3-dihydroimidazo[2,1-b]oxazole], the minimum inhibitory concentration (MIC) was 0.5 µg/mL (≈ 1.25 µM) in data set [1] (setting [4]), less than 1 µg/mL in data set [1] (read-out: MIC value) and 1 µg/mL (≈ 2.51 µM) in data set [2]. The molecule further yielded a Cytotoxicity in data set [3] of more than 40 µg/mL.

`C[C@]1(Cn2cc(COc3ccc(Br)cc3)nn2)Cn2cc([N+](=O)[O-])nc2O1` [I11, (R)-2-((4-((4-Bromophenoxy)methyl)-1H-1,2,3-triazol-1-yl)methyl)-2-methyl-6-nitro-2,3-dihydroimidazo[2,1-b]oxazole]: the MIC in data set [1] (setting [4]) was 0.12 µg/mL (≈ 0.276 µM); in data set [1] (read-out: MIC value), less than 1 µg/mL; in data set [2] it was 0.25 µg/mL (≈ 0.574 µM). The Cytotoxicity in data set [3] was more than 40 µg/mL.

For `C[C@]1(Cn2cc(-c3ccc(C(F)(F)F)cc3)nn2)Cn2cc([N+](=O)[O-])nc2O1` [I2, (R)-2-Methyl-6-nitro-2-((4-(4-(trifluoromethyl)phenyl)-1H-1,2,3-triazol-1-yl)methyl)-2,3-dihydroimidazo[2,1-b]oxazole], the MIC in data set [1] (setting [4]) was determined as 2 µg/mL (≈ 5.07 µM); in data set [2] it was 8 µg/mL (≈ 20.3 µM). This molecule also had a Cytotoxicity in data set [3] of more than 40 µg/mL.

Turning to `C[C@]1(Cn2cc(-c3ccc(F)cc3F)nn2)Cn2cc([N+](=O)[O-])nc2O1` [I5, (R)-2-((4-(2,4-Difluorophenyl)-1H-1,2,3-triazol-1-yl)methyl)-2-methyl-6-nitro-2,3-dihydroimidazo[2,1-b]oxazole], the MIC was determined as 1 µg/mL (≈ 2.76 µM) in data set [1] (setting [4]) and 8 µg/mL (≈ 22.1 µM) in data set [2]. In data set [3], the Cytotoxicity was more than 40 µg/mL.

As for `C[C@]1(Cn2cc(COc3ccccn3)nn2)Cn2cc([N+](=O)[O-])nc2O1` [I19, (R)-2-Methyl-6-nitro-2-((4-((pyridin-2-yloxy)methyl)-1H-1,2,3-triazol-1-yl)methyl)-2,3-dihydroimidazo[2,1-b]oxazole], the MIC was 1 µg/mL (≈ 2.8 µM) in data set [1] (setting [4]) and 2 µg/mL (≈ 5.6 µM) in data set [2]. Further, the Cytotoxicity in data set [3] was more than 40 µg/mL.
